Assay results from ChEMBL document CHEMBL1275362, “Synthesis of new antifungal peptides selective against Cryptococcus neoformans” (2010).
In brackets after ≈: the same amount, converted by molar mass. Starred links: 1 amine or outer side, 2 acyl side, 3 side chain; linkers in the order of their positions; H or OH if unused. Non-standard residues stand in square brackets, D forms with d. Residues, ends and D or L forms follow the SMILES beside them. X1 = O=C([C@H](CC1=NC=NC1)N[*:1])[*:2]

Key:
Format in all cases: functional
Cryptococcus neoformans [1] = test: Antifungal activity against Cryptococcus neoformans ATCC 52817 after 72 hrs by broth microdilution method; conditions: ATCC 52817, 72 h
Cryptococcus neoformans [2] = test: Antifungal activity against Cryptococcus neoformans H99 after 72 hrs by broth microdilution method; conditions: H99, 72 h
Candida tropicalis = test: Antifungal activity against Candida tropicalis after 48 hrs by broth microdilution method
Nakaseomyces glabratus = test: Antifungal activity against Candida glabrata after 48 hrs by broth microdilution method
Candida albicans = test: Antifungal activity against Candida albicans after 48 hrs by broth microdilution method
Candida parapsilosis = test: Antifungal activity against Candida parapsilosis after 48 hrs by broth microdilution method; conditions: Lodderomyces parapsilosis
Pichia kudriavzevii = test: Antifungal activity against Candida krusei after 48 hrs by broth microdilution method

## N=C(N)NCCC[C@H](NC(=O)[C@H](Cc1c[nH]c2ccccc12)NC(=O)[C@H](Cc1c[nH]c2ccccc12)NC(=O)[C@H](CCCNC(=N)N)NC(=O)[C@H](CCCNC(=N)N)NC(=O)[C@H](CC1=NC=NC1)NC(=O)CNC(=O)[C@@H](N)Cc1c[nH]cn1)C(=O)N[C@@H](Cc1ccccc1)C(=O)O (H-HG[X1]RRWWRF-OH)
Cryptococcus neoformans [1]
  MIC: 8 µg/mL (≈ 5.98 µM)
Cryptococcus neoformans [2]
  MIC: 8 µg/mL (≈ 5.98 µM)
  MIC90: 16 µg/mL (≈ 12 µM)
Candida tropicalis
  MIC: 256 µg/mL (≈ 191 µM)
  MIC90: > 512 µg/mL
Nakaseomyces glabratus
  MIC: 256 µg/mL (≈ 191 µM)
  MIC90: > 512 µg/mL
Candida albicans
  MIC: 256 µg/mL (≈ 191 µM)
  MIC90: > 512 µg/mL
Candida parapsilosis
  MIC: > 512 µg/mL
  MIC90: 512 µg/mL (≈ 383 µM)
Pichia kudriavzevii
  MIC: 256 µg/mL (≈ 191 µM)
  MIC90: 512 µg/mL (≈ 383 µM)

## N=C(N)NCCC[C@@H]1NC(=O)[C@H](CCCNC(=N)N)NC(=O)[C@H](Cc2c[nH]c3ccccc23)NC(=O)[C@H](Cc2c[nH]c3ccccc23)NC(=O)[C@H](CCCNC(=N)N)NC(=O)[C@H](Cc2ccccc2)NC(=O)[C@H](Cc2c[nH]cn2)NC1=O (cyclo(FRWWRRH))
Cryptococcus neoformans [1]
  MIC: 8 µg/mL (≈ 7.11 µM)
Cryptococcus neoformans [2]
  MIC: 4 µg/mL (≈ 3.55 µM)
  MIC90: 8 µg/mL (≈ 7.11 µM)
Candida tropicalis
  MIC: 64 µg/mL (≈ 56.9 µM)
  MIC90: 256 µg/mL (≈ 227 µM)
Nakaseomyces glabratus
  MIC: 64 µg/mL (≈ 56.9 µM)
  MIC90: 256 µg/mL (≈ 227 µM)
Candida albicans
  MIC: 64 µg/mL (≈ 56.9 µM)
  MIC90: 256 µg/mL (≈ 227 µM)
Candida parapsilosis
  MIC: 64 µg/mL (≈ 56.9 µM)
  MIC90: 128 µg/mL (≈ 114 µM)
Pichia kudriavzevii
  MIC: 32 µg/mL (≈ 28.4 µM)
  MIC90: 64 µg/mL (≈ 56.9 µM)

## N=C(N)NCCC[C@@H]1NC(=O)[C@H](CCCNC(=N)N)NC(=O)[C@H](Cc2c[nH]c3ccccc23)NC(=O)[C@H](Cc2c[nH]c3ccccc23)NC(=O)[C@H](CCCNC(=N)N)NC(=O)[C@H](Cc2ccccc2)NC(=O)[C@H](Cc2c[nH]cn2)NC(=O)CNC(=O)[C@H](Cc2c[nH]cn2)NC1=O (cyclo(FRWWRRHGH))
Cryptococcus neoformans [1]
  MIC: 4 µg/mL (≈ 3.03 µM)
Cryptococcus neoformans [2]
  MIC: 2 µg/mL (≈ 1.52 µM)
  MIC90: 4 µg/mL (≈ 3.03 µM)
Candida tropicalis
  MIC: 32 µg/mL (≈ 24.3 µM)
  MIC90: 128 µg/mL (≈ 97 µM)
Nakaseomyces glabratus
  MIC: 64 µg/mL (≈ 48.5 µM)
  MIC90: 256 µg/mL (≈ 194 µM)
Candida albicans
  MIC: 32 µg/mL (≈ 24.3 µM)
  MIC90: 128 µg/mL (≈ 97 µM)
Candida parapsilosis
  MIC: 32 µg/mL (≈ 24.3 µM)
  MIC90: 128 µg/mL (≈ 97 µM)
Pichia kudriavzevii
  MIC: 32 µg/mL (≈ 24.3 µM)
  MIC90: 64 µg/mL (≈ 48.5 µM)

## N=C(N)NCCC[C@@H]1NC(=O)[C@H](CCCNC(=N)N)NC(=O)[C@H](Cc2ccccc2)NC(=O)[C@H](CCCNC(=N)N)NC(=O)[C@H](Cc2c[nH]c3ccccc23)NC(=O)[C@H](Cc2c[nH]c3ccccc23)NC1=O (cyclo(RRWWRF))
Cryptococcus neoformans [1]
  MIC: 8 µg/mL (≈ 8.1 µM)
Cryptococcus neoformans [2]
  MIC: 4 µg/mL (≈ 4.05 µM)
  MIC90: 64 µg/mL (≈ 64.8 µM)
Candida tropicalis
  MIC: 128 µg/mL (≈ 130 µM)
  MIC90: 512 µg/mL (≈ 518 µM)
Nakaseomyces glabratus
  MIC: 128 µg/mL (≈ 130 µM)
  MIC90: 512 µg/mL (≈ 518 µM)
Candida albicans
  MIC: 128 µg/mL (≈ 130 µM)
  MIC90: 512 µg/mL (≈ 518 µM)
Candida parapsilosis
  MIC: 32 µg/mL (≈ 32.4 µM)
  MIC90: 128 µg/mL (≈ 130 µM)
Pichia kudriavzevii
  MIC: 32 µg/mL (≈ 32.4 µM)
  MIC90: 512 µg/mL (≈ 518 µM)

## C[C@@H]1[C@H](O)[C@@H](C)/C=C/C=C/C=C/C=C/C=C/C=C/C=C/[C@H](O[C@@H]2O[C@H](C)[C@@H](O)[C@H](N)[C@@H]2O)C[C@@H]2O[C@](O)(C[C@@H](O)C[C@@H](O)[C@H](O)CC[C@@H](O)C[C@@H](O)CC(=O)O[C@H]1C)C[C@H](O)[C@H]2C(=O)O [AMPHOTERICIN B]
Cryptococcus neoformans [2]
  MIC: 0.125 µg/mL (≈ 0.135 µM)
  MIC90: 0.25 µg/mL (≈ 0.271 µM)
Candida tropicalis
  MIC: 0.03 µg/mL (≈ 0.0325 µM)
  MIC90: 0.06 µg/mL (≈ 0.0649 µM)
Nakaseomyces glabratus
  MIC: 0.03 µg/mL (≈ 0.0325 µM)
  MIC90: 0.125 µg/mL (≈ 0.135 µM)
Candida albicans
  MIC: 0.03 µg/mL (≈ 0.0325 µM)
  MIC90: 0.125 µg/mL (≈ 0.135 µM)
Candida parapsilosis
  MIC: 0.06 µg/mL (≈ 0.0649 µM)
  MIC90: 0.06 µg/mL (≈ 0.0649 µM)
Pichia kudriavzevii
  MIC: 0.03 µg/mL (≈ 0.0325 µM)
  MIC90: 0.06 µg/mL (≈ 0.0649 µM)

## OC(Cn1cncn1)(Cn1cncn1)c1ccc(F)cc1F [FLUCONAZOLE]
Cryptococcus neoformans [2]
  MIC: 2 µg/mL (≈ 6.53 µM)
  MIC90: 4 µg/mL (≈ 13.1 µM)
Candida tropicalis
  MIC: 0.5 µg/mL (≈ 1.63 µM)
  MIC90: 2 µg/mL (≈ 6.53 µM)
Nakaseomyces glabratus
  MIC: 4 µg/mL (≈ 13.1 µM)
  MIC90: 64 µg/mL (≈ 209 µM)
Candida albicans
  MIC: 0.125 µg/mL (≈ 0.408 µM)
  MIC90: 0.25 µg/mL (≈ 0.816 µM)
Candida parapsilosis
  MIC: 1 µg/mL (≈ 3.27 µM)
  MIC90: 2 µg/mL (≈ 6.53 µM)
Pichia kudriavzevii
  MIC: 16 µg/mL (≈ 52.2 µM)
  MIC90: 64 µg/mL (≈ 209 µM)

## H-HRRWWRF-OH
Cryptococcus neoformans [1]
  MIC: 16 µg/mL
Cryptococcus neoformans [2]
  MIC: 8 µg/mL
  MIC90: 16 µg/mL
Candida tropicalis
  MIC: 128 µg/mL
  MIC90: 512 µg/mL
Nakaseomyces glabratus
  MIC: 128 µg/mL
  MIC90: 512 µg/mL
Candida albicans
  MIC: 128 µg/mL
  MIC90: 512 µg/mL
Candida parapsilosis
  MIC: 128 µg/mL
  MIC90: 256 µg/mL
Pichia kudriavzevii
  MIC: 128 µg/mL
  MIC90: 256 µg/mL

## H-RRWWRF-OH
Cryptococcus neoformans [1]
  MIC: 16 µg/mL
Cryptococcus neoformans [2]
  MIC: 16 µg/mL
  MIC90: 64 µg/mL
Candida tropicalis
  MIC: 128 µg/mL
  MIC90: 512 µg/mL
Nakaseomyces glabratus
  MIC: 128 µg/mL
  MIC90: 512 µg/mL
Candida albicans
  MIC: 128 µg/mL
  MIC90: 512 µg/mL
Candida parapsilosis
  MIC: 64 µg/mL
  MIC90: 128 µg/mL
Pichia kudriavzevii
  MIC: 128 µg/mL
  MIC90: 512 µg/mL
